This note sets out measurements from patent publication US8445516B2, “Pharmaceutical composition for promoting angiogenesis” (Otsuka Pharmaceutical Co., Ltd., priority 2004, dated 2013).

What all share (assay type): cell-based
Assay [1] deals with thoracic aortic ring specimens of rat. The assay is described as follows: Rat aortic ring culture: angiogenesis promoting action (newly grown micro-vessels). As to conditions: for Number of micro-vessels: 7 days culture, mean ± SE, control 20 ± 2. The method, then:
The test was conducted according to a report by Nicosia R. F. et al. (In Vitro Cell Dev Biol 26, 119-128, 1990). Briefly, thoracic aorta was removed from rat under ether anesthesia, and aortic rings were obtained by cross-sectioning at 1 mm intervals. The aortic rings were embedded into type I collagen gel (Koken Co.). Further, MCDB131 medium (Gibco BRL Co.) containing the Test Compound A was added to the upper layer, and the medium was exchanged every three days. After 7 days from the culture, micro-vessels newly grown from a cutting section of the aortic ring specimens were stained with alkaline phosphatase, then numbers of micro-vessels observed based on digital camera image were counted by using Scion Image (Scion Corp.). The statistical analysis was performed as follows: Data were analyzed using Dunnett's test with randamized block design. The difference between test compound groups and non-treated group were considered statistical significant at P<0.05.

The subject of assay [2] is human aortic endothelial cells. The assay is described as follows: Vascular endothelial cell migration (48 well micro chemotaxis chamber). As to conditions: for Number of Migration cell: 4 hours, mean ± SE, control 34 ± 8. The protocol: The test was conducted according to a report by Witzenbichler, B. et al. (J. Biol. Chem., 273, 18514-18521, 1998). Briefly, human aortic endothelial cells (Cambrex Corp.) were cultured in MCDB131 medium to confluent state. Cell migration was tested by using a 48 well micro chemotaxis chamber (Neuro Probe Inc.). The Test Compound A was added into the lower layer of a well, while cells, 1×10^4 cells per well, were added into the upper layer, and those were cultured for 4 hours. Cells were immobilized with methanol and cells in the upper layer of a filter were removed, and cells migrated on the filter were stained with Diff Quick (International Reagents Corp.), then numbers of migrated endothelial cells observed from digital camera image were counted by using Scion Image (Scion Corp.). The statistical analysis was performed as follows: Data were analyzed using Williams' test after linear regression analysis. The difference between test compound groups and non-treated group were considered statistical significant at P<0.05.

Assay [3] concerns human aortic endothelial cells. The assay is described as follows: Luminalization (tube formation) of vascular endothelial cells in gel. As to conditions: for Length of formed tube (Pixel): third day, mean ± SE, control 13.3 ± 0.4. The method, then: The test was conducted according to a report by Yasunaga, C. et al. (Lab Invest, 1989; 61: 698-704). Briefly, human aortic endothelial cells (Cambrex Corp.) were cultured in MCDB131 medium to confluent state. Cells prepared with medium containing the Test Compound A, 5×10^4 cells/well, were added on cell matrix gel (Nitta Gelatin Co.) and cultured for 4 hours to adhere cells. After medium removal, gel was added to embed cells, and medium containing the drug was added on the upper layer, then length of the formed tube was measured on the third day based on digital camera image by using Scion Image (Scion Corp.). The statistical analysis was performed as follows: Data were analyzed using Williams' test after linear regression analysis. The difference between test compound groups and non-treated group were considered statistical significant at P<0.05.

Setting [4] is: dose dependent manner, compared with non-treated control group.

`CCC(=O)Nc1c(C)cc(C(=O)N2CCC(N(C)CCc3ccccc3)CC2)cc1C` [Test Compound A, 4-[N-methyl-N-(2-phenylethyl)amino]-1-(3,5-dimethyl-4-propionylaminobenzoyl)piperidine]: the Number of micro-vessels was 35 ± 4 in assay [1] (Concentration 6 (−Log M)); 33 ± 3 in assay [1] (Concentration 7 (−Log M)); 32 ± 4 in assay [1] (Concentration 8 (−Log M)); 27 ± 2 in assay [1] (Concentration 9 (−Log M)); 30 ± 3 in assay [1] (Concentration 10 (−Log M)); 22 ± 3 in assay [1] (Concentration 11 (−Log M)). In assay [1] (Concentration 12 (−Log M)), this compound yielded a Number of micro-vessels of 24 ± 3. For the same compound, the “Effect on numbers of newly grown micro-vessels (in words)” value in assay [1] (setting [4]) is given as “significantly increased numbers of newly grown micro-vessels”. For the same compound, the “Number of Migration cell” value in assay [2] (Concentration 8 (−Log M)) is recorded as 64 ± 7; in assay [2] (Concentration 9 (−Log M)) it was 64 ± 8; in assay [2] (Concentration 10 (−Log M)), 49 ± 6; in assay [2] (Concentration 11 (−Log M)) it was 42 ± 6; in assay [2] (Concentration 12 (−Log M)), 41 ± 8. Moreover, the “Effect on numbers of migration cells (in words)” value in assay [2] (setting [4]) was “significantly increased numbers of migration cells”. The “Length of formed tube (Pixel)” value in assay [3] (Concentration 6 (−Log M)) is reported as 48.4 ± 5.3 Pixel; in assay [3] (Concentration 7 (−Log M)) it was 32.2 ± 3.8 Pixel; in assay [3] (Concentration 8 (−Log M)) it was 15.7 ± 0.9 Pixel. Further, the “Effect on length of formed tube (in words)” value in assay [3] (setting [4]) was “significantly increased length of formed tube”.
